Laboratory results published in US12371426B2, “Pyridazine derivatives as SMARCA2/4 degraders” (Aurigene Discovery Technologies Limited, priority 2018, dated 2025).

Columns and labels:
Type in all cases: cell-based
[1] = target: T1, SMARCA2 (Homo sapiens, UniProt P51531); test: SMARCA2 degradation in H929 cells by Western blot; parameters: endogenous in cells; conditions: 16 hours
Protocol: (§1) Determination of SMARCA2 and SMARCA4 Degradation in H929 Cells by Western Blot:
(§2) NCI-H929 (ATCC CRL-9068) was plated in 6 well plates using complete RPMI-1640 media. Next day, compounds of present invention were added to cells from 10 mM stocks made in DMSO (Sigma Cat no. D2650). Each concentration of compound was tested with DMSO not exceeding final percentage of 0.3 in the cells. Cells were incubated with the compound for 16 hours followed by harvesting with 1× RIPA lysis buffer (Thermo Fischer, catalogue number #89900) containing protease inhibitor cocktail (Sigma catalogue number #P-8340). Equal amount of protein was loaded on SDS PAGE gel for electrophoresis. Western blot was carried out for detection of either SMARCA2 (Cell signaling technologies, catalogue number #11966) or SMARCA4 antibody (Cell signaling technologies, catalogue number #49360). Beta Actin (Santa Cruz, catalogue number #69879) was used as loading control. Percentage of SMARCA2 or SMARCA4 degradation was calculated using formula % Degradation=100−(normalized band intensity in treated sample/normalized band intensity in DMSO sample)*100.
(§3) Selected compounds of the present invention were screened in the above mentioned assay procedures for determination of % SMARCA2 and SMARCA4 degradation 100 nM and the results are summarized in below table 30.

[2] = test system: NCI-H929 cells; test: Anti proliferative activity in NCI-H929 cell line by Cell Titer Glo assay; conditions: Homo sapiens, 72 h, 3 days compound incubation, CellTiter Glo, read-out: Anti-proliferative activity IC50 group (NCI-H929 cells)
Protocol: Determination of Anti Proliferative Activity of Compounds in NCI-H929 and NCI-H838 Cell Lines by Cell Titer Glo® (promega) assay:
NCI-H929 (ATCC CRL-9068) or NCI-H838 (ATCC CRL-5844) cells were seeded in 96 well plate flat black clear bottom plates (Corning, Cat. No 3904) using complete RPMI-1640 media. Next day, compounds listed in the present invention were added to cells from 10 mM stocks made in DMSO (Sigma Cat no. D2650). Each concentration of compound was tested in triplicate with DMSO concentration at a final percentage not exceeding 0.3 in the cells. After the compound incubation (3 days for H929 and 8 days for H838) assay was terminated using 50 μl of CellTiter Glo® reagent (Promega, Cat. no G7572). CellTiter Glo® Luminescent reagent determines the number of viable cells based on quantitation of ATP present which is an indicator of cell number and metabolic activity. Luminescence readings were taken in Victor-3 instrument. Percent inhibition of proliferation was calculated using formula, % inhibition=100−(luminescence value of test/luminescence value of DMSO control)*100. DMSO control (0%)=Cells in complete media with DMSO; blank=Media alone containing DMSO. IC50 was calculated using graph pad prism software.
Herein group “A” refers to IC50 value lower than 1 μM, “B” refers to IC50 value between 1-10 μM (both inclusive) and “C” refers to IC50 value higher than 10 μM or less than 50% activity at 10 μM.

[3] = target: T2, SMARCA4 (Homo sapiens, UniProt P51532); test: SMARCA4 degradation in H929 cells by Western blot; conditions: 16 hours; for SMARCA4 percent degradation at 0.1 µM: NCI-H929, 100 nM
T2 construct: endogenous in cells; host or cells: NCI-H929 (ATCC CRL-9068)
Protocol: as §1, §2, §3

[4] = target: T1, SMARCA2; test: SMARCA2 degradation in NCI-H838 cells by Western blot; parameters: endogenous in cells; host or cells: NCI-H838 (ATCC CRL-5844); conditions: 16 hours
Protocol: Determination of SMARCA2 Degradation in NCI-1H838 Cells by Western Blot:
NCI-1H838 (ATCC CRL-5844) was plated in 6 well plates using complete RPMI-1640 media. Next day, compounds of present invention were added to cells from 10 mM stocks made in DMSO (Sigma Cat no. D2650). Each concentration of compound was tested with DMSO concentration not exceeding a final percentage of 0.3 in the cells. Cells were incubated with the compound for 16 hours followed by harvesting with 1× RIPA lysis buffer (Thermo Fischer, catalogue number #89900) containing protease inhibitor cocktail (Sigma catalogue number #P-8340). Equal amount of protein was loaded on SIDS PAGE gel for electrophoresis. Western blot was carried out for detection of SMARCA2 with antibody (Cell signaling technologies, catalogue number #11966). Beta Actin (Santa Cruz, catalogue number #69879) was used as loading control. Percentage of SMARCA2 degradation was calculated using formula % degradation=100−(normalized band intensity in treated sample/normalized band intensity in DMSO sample)*100”.
Selected compounds of the present invention were screened in the above mentioned assay procedures for determination of % SMARCA2 degradation at 100 nM and the results are summarized in below table 31.

T2 sequence (P51532 whole entry): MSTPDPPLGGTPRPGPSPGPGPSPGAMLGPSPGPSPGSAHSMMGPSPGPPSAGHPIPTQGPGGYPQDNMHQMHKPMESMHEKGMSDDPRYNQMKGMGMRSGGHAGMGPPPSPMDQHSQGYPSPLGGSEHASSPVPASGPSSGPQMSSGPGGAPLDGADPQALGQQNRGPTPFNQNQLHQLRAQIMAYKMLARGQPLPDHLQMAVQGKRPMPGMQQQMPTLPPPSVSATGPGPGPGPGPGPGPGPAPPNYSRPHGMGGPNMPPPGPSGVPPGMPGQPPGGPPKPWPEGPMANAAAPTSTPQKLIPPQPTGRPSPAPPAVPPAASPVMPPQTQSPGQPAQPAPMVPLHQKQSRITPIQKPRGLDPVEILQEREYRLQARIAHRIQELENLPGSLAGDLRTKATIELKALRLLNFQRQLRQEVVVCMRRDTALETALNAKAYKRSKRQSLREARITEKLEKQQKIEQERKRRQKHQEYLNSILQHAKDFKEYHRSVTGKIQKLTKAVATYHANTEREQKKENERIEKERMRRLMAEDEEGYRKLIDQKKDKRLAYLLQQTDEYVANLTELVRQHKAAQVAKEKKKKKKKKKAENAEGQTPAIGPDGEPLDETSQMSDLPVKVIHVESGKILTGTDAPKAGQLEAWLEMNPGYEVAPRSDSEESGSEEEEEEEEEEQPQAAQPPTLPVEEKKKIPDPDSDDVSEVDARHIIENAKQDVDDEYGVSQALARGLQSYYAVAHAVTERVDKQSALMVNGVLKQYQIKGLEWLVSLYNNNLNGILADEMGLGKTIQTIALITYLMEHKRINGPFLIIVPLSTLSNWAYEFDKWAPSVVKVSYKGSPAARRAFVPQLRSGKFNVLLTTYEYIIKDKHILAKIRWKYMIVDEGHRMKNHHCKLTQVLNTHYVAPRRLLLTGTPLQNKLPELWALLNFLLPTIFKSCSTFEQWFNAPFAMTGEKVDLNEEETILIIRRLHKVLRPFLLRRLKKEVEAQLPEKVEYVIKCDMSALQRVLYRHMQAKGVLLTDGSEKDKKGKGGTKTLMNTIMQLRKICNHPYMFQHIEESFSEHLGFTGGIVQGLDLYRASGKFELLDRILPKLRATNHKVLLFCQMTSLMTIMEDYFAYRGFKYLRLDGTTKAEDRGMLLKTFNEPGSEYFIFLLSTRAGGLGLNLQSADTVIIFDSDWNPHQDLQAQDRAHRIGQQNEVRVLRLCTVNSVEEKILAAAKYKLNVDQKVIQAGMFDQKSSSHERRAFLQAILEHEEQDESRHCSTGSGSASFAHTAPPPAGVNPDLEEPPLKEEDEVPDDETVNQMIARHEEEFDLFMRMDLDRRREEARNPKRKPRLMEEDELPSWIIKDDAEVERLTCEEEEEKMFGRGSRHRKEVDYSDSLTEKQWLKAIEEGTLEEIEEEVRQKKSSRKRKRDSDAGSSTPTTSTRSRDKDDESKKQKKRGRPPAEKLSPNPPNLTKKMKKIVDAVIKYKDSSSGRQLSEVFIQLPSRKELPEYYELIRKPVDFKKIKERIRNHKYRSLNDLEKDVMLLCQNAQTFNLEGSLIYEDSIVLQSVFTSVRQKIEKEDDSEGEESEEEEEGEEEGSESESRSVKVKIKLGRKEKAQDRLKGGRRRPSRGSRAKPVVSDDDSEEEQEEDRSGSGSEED
T1 sequence (P51531 whole entry): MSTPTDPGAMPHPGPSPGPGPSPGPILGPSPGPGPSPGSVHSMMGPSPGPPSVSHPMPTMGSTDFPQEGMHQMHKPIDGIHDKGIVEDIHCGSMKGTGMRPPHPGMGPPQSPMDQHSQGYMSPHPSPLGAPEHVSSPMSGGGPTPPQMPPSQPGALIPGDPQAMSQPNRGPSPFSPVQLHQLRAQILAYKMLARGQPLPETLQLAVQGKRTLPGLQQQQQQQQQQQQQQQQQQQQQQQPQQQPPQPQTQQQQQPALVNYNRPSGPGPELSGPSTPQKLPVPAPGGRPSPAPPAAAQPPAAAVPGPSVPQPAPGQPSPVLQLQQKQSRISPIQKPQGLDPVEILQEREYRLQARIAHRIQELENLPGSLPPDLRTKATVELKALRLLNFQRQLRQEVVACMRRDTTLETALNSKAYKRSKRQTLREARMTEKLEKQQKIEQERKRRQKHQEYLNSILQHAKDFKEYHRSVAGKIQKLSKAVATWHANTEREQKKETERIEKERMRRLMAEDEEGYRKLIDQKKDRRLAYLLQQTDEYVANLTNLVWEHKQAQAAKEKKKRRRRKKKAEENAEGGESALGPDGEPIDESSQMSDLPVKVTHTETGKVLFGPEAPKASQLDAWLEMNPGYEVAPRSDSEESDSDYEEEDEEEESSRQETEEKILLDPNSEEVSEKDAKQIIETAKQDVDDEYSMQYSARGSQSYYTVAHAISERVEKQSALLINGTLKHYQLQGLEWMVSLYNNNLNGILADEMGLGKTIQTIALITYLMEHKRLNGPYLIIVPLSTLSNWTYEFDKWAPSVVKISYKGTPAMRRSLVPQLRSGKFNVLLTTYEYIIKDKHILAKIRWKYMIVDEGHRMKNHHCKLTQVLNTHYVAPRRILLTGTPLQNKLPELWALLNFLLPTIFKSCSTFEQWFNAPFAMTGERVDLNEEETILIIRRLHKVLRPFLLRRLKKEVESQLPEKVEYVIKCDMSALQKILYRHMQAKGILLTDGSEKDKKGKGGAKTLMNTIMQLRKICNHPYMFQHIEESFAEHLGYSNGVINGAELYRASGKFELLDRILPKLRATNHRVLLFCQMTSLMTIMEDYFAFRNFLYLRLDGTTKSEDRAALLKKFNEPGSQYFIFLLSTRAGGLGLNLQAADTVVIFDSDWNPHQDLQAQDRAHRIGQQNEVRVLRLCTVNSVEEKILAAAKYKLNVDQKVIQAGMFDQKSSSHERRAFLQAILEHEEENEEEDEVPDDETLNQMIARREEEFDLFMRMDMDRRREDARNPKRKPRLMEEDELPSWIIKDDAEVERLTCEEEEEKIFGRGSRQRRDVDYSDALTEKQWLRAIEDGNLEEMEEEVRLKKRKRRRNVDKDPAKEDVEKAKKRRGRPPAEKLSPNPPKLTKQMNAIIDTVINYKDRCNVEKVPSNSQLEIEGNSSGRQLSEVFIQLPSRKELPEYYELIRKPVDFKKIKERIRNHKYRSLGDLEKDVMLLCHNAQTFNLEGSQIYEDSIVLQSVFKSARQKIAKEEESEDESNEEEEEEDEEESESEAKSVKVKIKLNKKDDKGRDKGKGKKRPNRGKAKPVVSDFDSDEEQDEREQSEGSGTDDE

Structure (SMILES)	SMARCA2 Percent degradation @ 100 nM [1] [%]	IC50 [2] [nM]	SMARCA4 percent degradation at 0.1 µM [3] [%]	SMARCA4 Percent degradation @ 100 nM [3] [%]	SMARCA2 @ 100 nM (% SMARCA2 degradation) [4] [%]
Cc1ncsc1-c1ccc([C@H](C)NC(=O)[C@@H]2C[C@@H](O)CN2C(=O)[C@@H](NC(=O)C(C)N2CCN(c3cc(-c4ccccc4O)nnc3N)CC2)C(C)(C)C)cc1 (single isomer, unassigned) [Compound 57]	79.6	< 1000			
Cc1ncsc1-c1ccc([C@H](C)NC(=O)[C@@H]2C[C@@H](O)CN2C(=O)[C@@H](NC(=O)C(C)C2CCN(c3cc(-c4cccc(F)c4O)nnc3N)CC2)C(C)(C)C)cc1 (single isomer, unassigned) [Compound 84]	58				
Cc1ncsc1-c1ccc([C@H](C)NC(=O)[C@@H]2C[C@@H](O)CN2C(=O)[C@@H](NC(=O)CCCCCCC(=O)N2CCN(c3cc(-c4ccccc4O)nnc3N)CC2)C(C)(C)C)cc1 [Compound 37]	96	< 1000			
Cc1ncsc1-c1ccc([C@H](C)NC(=O)[C@@H]2C[C@@H](O)CN2C(=O)[C@@H](NC(=O)CCCCCCCCCC(=O)N2CCN(c3cc(-c4ccccc4O)nnc3N)CC2)C(C)(C)C)cc1 [Compound 38]	99	1000 to 10000	17		
Cc1ncsc1-c1ccc(CNC(=O)[C@@H]2C[C@@H](O)CN2C(=O)[C@@H](NC(=O)CN2CCN(c3cc(-c4ccccc4O)nnc3N)CC2)C(C)(C)C)cc1 [Compound 39]	97	< 1000			
Nc1nnc(-c2ccccc2O)cc1N1CCN(CC(=O)Nc2cccc3c2C(=O)N(C2CCC(=O)NC2=O)C3=O)CC1 (stereo not drawn) [Compound 41]	64		60		
Cc1ncsc1-c1ccc([C@H](C)NC(=O)[C@@H]2C[C@@H](O)CN2C(=O)[C@@H](NC(=O)CN2CCN(c3cc(-c4ccccc4F)nnc3N)CC2)C(C)(C)C)cc1 [Compound 44]	93	1000 to 10000	82		
CC(=O)O[C@@H]1C[C@@H](C(=O)N[C@@H](C)c2ccc(-c3scnc3C)cc2)N(C(=O)[C@@H](NC(=O)CN2CCN(c3cc(-c4ccccc4O)nnc3N)CC2)C(C)(C)C)C1 [Compound 47, (3R,5S)-1-((S)-2-(2-(4-(3-amino-6-(2-hydroxyphenyl)pyridazin-4-yl)piperazin-1-yl)acetamido)-3,3-dimethylbutanoyl)-5-(((S)-1-(4-(4-methylthiazol-5-yl)phenyl)ethyl)carbamoyl)pyrrolidin-3-yl acetate]	87			87	
CC(=O)O[C@@H]1C[C@@H](C(=O)NCc2ccc(-c3scnc3C)cc2)N(C(=O)[C@@H](NC(=O)CN2CCN(c3cc(-c4ccccc4O)nnc3N)CC2)C(C)(C)C)C1 [Compound 48, (3R,5S)-1-((S)-2-(2-(4-(3-amino-6-(2-hydroxyphenyl)pyridazin-4-yl)piperazin-1-yl)acetamido)-3,3-dimethylbutanoyl)-5-((4-(4-methylthiazol-5-yl)benzyl)carbamoyl)pyrrolidin-3-yl acetate]	5.4			28	
Cc1ncsc1-c1ccc([C@H](C)NC(=O)[C@@H]2C[C@@H](O)CN2C(=O)[C@@H](NC(=O)C(C)N2CCN(c3cc(-c4ccccc4O)nnc3N)CC2)C(C)(C)C)cc1 (stereo partly drawn) [Compound 56, (2S,4R)-1-((2S)-2-(2-(4-(3-amino-6-(2-hydroxyphenyl)pyridazin-4-yl)piperazin-1-yl)propanamido)-3,3-dimethylbutanoyl)-4-hydroxy-N—((S)-1-(4-(4-methylthiazol-5-yl)phenyl)ethyl)pyrrolidine-2-carboxamide]	99	< 1000	100		
Cc1ncsc1-c1ccc(C(NC(=O)[C@@H]2C[C@@H](O)CN2C(=O)[C@@H](NC(=O)CC2CCN(c3cc(-c4cccc(F)c4O)nnc3N)CC2)C(C)(C)C)C(F)(F)F)cc1 (stereo partly drawn) [Compound 76, (2S,4R)-1-((S)-2-(2-(1-(3-amino-6-(3-fluoro-2-hydroxyphenyl)pyridazin-4-yl)piperidin-4-yl)acetamido)-3,3-dimethylbutanoyl)-4-hydroxy-N-(2,2,2-trifluoro-1-(4-(4-methylthiazol-5-yl)phenyl)ethyl)pyrrolidine-2-carboxamide]	90		12		
Cc1ncsc1-c1ccc([C@H](C)NC(=O)[C@@H]2C[C@@H](O)CN2C(=O)[C@@H](NC(=O)CN2CCN(c3cc(-c4ccccc4O)nnc3N)CC2)C(C)C)cc1 [Compound 79, (2S,4R)-1-((2-(4-(3-amino-6-(2-hydroxyphenyl)pyridazin-4-yl)piperazin-1-yl)acetyl)-L-valyl)-4-hydroxy-N—((S)-1-(4-(4-methylthiazol-5-yl)phenyl)ethyl)pyrrolidine-2-carboxamide]	99	< 1000	99		
Cc1ncsc1-c1ccc([C@H](C)NC(=O)[C@@H]2C[C@@H](O)CN2C(=O)[C@@H](NC(=O)C(C)(C)N2CCN(c3cc(-c4ccccc4O)nnc3N)CC2)C(C)(C)C)cc1 [Compound 87]	83	< 1000	93		
Cc1ncsc1-c1ccc([C@H](C)NC(=O)[C@@H]2C[C@@H](O)CN2C(=O)[C@@H](NC(=O)CC2CCN(c3cc(-c4cccc(F)c4O)nnc3N)CC2)C(C)(C)C)cc1 [Compound 98]	88	< 1000	99		
Cc1ncsc1-c1ccc([C@H](C)NC(=O)[C@@H]2C[C@@H](O)CN2C(=O)[C@@H](NC(=O)CC2CCN(c3cc(-c4cc(F)ccc4F)nnc3N)CC2)C(C)(C)C)cc1 [Compound 100]					9
Cc1ncsc1-c1ccc([C@H](C)NC(=O)[C@@H]2C[C@@H](O)CN2C(=O)[C@@H](NC(=O)CCCCCCCCC(=O)N2CCN(c3cc(-c4ccccc4O)nnc3N)CC2)C(C)(C)C)cc1 [Compound 109]	100	< 1000	38		
CO[C@@H]1C[C@@H](C(=O)N[C@@H](C)c2ccc(-c3scnc3C)cc2)N(C(=O)[C@@H](NC(=O)CN2CCN(c3cc(-c4ccccc4O)nnc3N)CC2)C(C)(C)C)C1 [Compound 117]	45.4	1000 to 10000	47		
Cc1ncsc1-c1ccc([C@H](C)NC(=O)[C@@H]2C[C@@H](O)CN2C(=O)[C@H](C)NC(=O)CN2CCN(c3cc(-c4ccccc4O)nnc3N)CC2)cc1 [Compound 118]	20.2	> 10000			
